± gives the expanded uncertainty stated by the source.
Test: xn = mol fraction of the nth substance listed
Details: 100 kPa, Liquid; for kinematic viscosity: Capillary tube (Ostwald / Ubbelohde) method; for mass density: Pycnometric method

NCCN [ethane-1,2-diamine] + OCCOCCO
Details | kinematic viscosity, 298.15 K [m2/s] | kinematic viscosity, 303.15 K [m2/s] | kinematic viscosity, 308.15 K [m2/s] | kinematic viscosity, 313.15 K [m2/s] | kinematic viscosity, 318.15 K [m2/s] | mass density, 298.15 K [kg/m3] | mass density, 303.15 K [kg/m3] | mass density, 308.15 K [kg/m3] | mass density, 313.15 K [kg/m3] | mass density, 318.15 K [kg/m3]
x1 = 0.085 | 2.94e-05 ± 2e-07 | 2.32e-05 ± 2e-07 | 1.85e-05 ± 2e-07 | 1.54e-05 ± 1e-07 | 1.3e-05 ± 1e-07 | 1104.7 ± 0.7 | 1101.3 ± 0.7 | 1097.7 ± 0.7 | 1094.3 ± 0.7 | 1091 ± 0.7
x1 = 0.164 | 3.37e-05 ± 3e-07 | 2.62e-05 ± 2e-07 | 2.07e-05 ± 2e-07 | 1.71e-05 ± 1e-07 | 1.43e-05 ± 1e-07 | 1096.3 ± 0.7 | 1092.8 ± 0.7 | 1089.4 ± 0.7 | 1085.8 ± 0.7 | 1082.5 ± 0.7
x1 = 0.2376 | 3.68e-05 ± 3e-07 | 2.84e-05 ± 2e-07 | 2.22e-05 ± 2e-07 | 1.82e-05 ± 2e-07 | 1.51e-05 ± 1e-07 | 1087.5 ± 0.7 | 1083.9 ± 0.7 | 1080.3 ± 0.7 | 1076.8 ± 0.7 | 1073.4 ± 0.7
x1 = 0.3062 | 3.81e-05 ± 3e-07 | 2.92e-05 ± 2e-07 | 2.27e-05 ± 2e-07 | 1.85e-05 ± 2e-07 | 1.53e-05 ± 1e-07 | 1078.1 ± 0.7 | 1074.5 ± 0.7 | 1070.8 ± 0.7 | 1067.2 ± 0.7 | 1063.6 ± 0.7
x1 = 0.3705 | 3.7e-05 ± 3e-07 | 2.82e-05 ± 2e-07 | 2.19e-05 ± 2e-07 | 1.78e-05 ± 2e-07 | 1.47e-05 ± 1e-07 | 1068.3 ± 0.7 | 1064.5 ± 0.7 | 1060.8 ± 0.7 | 1057.1 ± 0.7 | 1053.4 ± 0.7
x1 = 0.4308 | 3.36e-05 ± 3e-07 | 2.57e-05 ± 2e-07 | 2e-05 ± 2e-07 | 1.64e-05 ± 1e-07 | 1.35e-05 ± 1e-07 | 1057.7 ± 0.7 | 1053.8 ± 0.7 | 1050.1 ± 0.7 | 1046.4 ± 0.7 | 1042.8 ± 0.7
x1 = 0.4874 | 2.87e-05 ± 2e-07 | 2.22e-05 ± 2e-07 | 1.74e-05 ± 1e-07 | 1.43e-05 ± 1e-07 | 1.19e-05 ± 1e-07 | 1046.5 ± 0.7 | 1042.7 ± 0.7 | 1039.1 ± 0.7 | 1035.3 ± 0.7 | 1031.7 ± 0.7
x1 = 0.5407 | 2.31e-05 ± 2e-07 | 1.8e-05 ± 2e-07 | 1.44e-05 ± 1e-07 | 1.19e-05 ± 1e-07 | 1e-05 ± 1e-07 | 1034.6 ± 0.7 | 1030.8 ± 0.7 | 1027 ± 0.7 | 1023.1 ± 0.7 | 1019.5 ± 0.7
x1 = 0.5909 | 1.81e-05 ± 2e-07 | 1.44e-05 ± 1e-07 | 1.15e-05 ± 1e-07 | 9.68e-06 ± 8e-08 | 8.16e-06 ± 7e-08 | 1022.5 ± 0.7 | 1018.7 ± 0.7 | 1015 ± 0.7 | 1011.1 ± 0.7 | 1007.4 ± 0.7
x1 = 0.6384 | 1.4e-05 ± 1e-07 | 1.13e-05 ± 1e-07 | 9.35e-06 ± 8e-08 | 7.83e-06 ± 6e-08 | 6.79e-06 ± 6e-08 | 1010.7 ± 0.7 | 1006.8 ± 0.7 | 1003.1 ± 0.7 | 999.3 ± 0.7 | 995.4 ± 0.7
x1 = 0.6834 | 1.06e-05 ± 1e-07 | 8.7e-06 ± 7e-08 | 7.27e-06 ± 6e-08 | 6.21e-06 ± 5e-08 | 5.45e-06 ± 5e-08 | 997.9 ± 0.7 | 994 ± 0.7 | 990 ± 0.7 | 986.2 ± 0.7 | 982.5 ± 0.7
x1 = 0.7259 | 8.32e-06 ± 7e-08 | 6.95e-06 ± 6e-08 | 5.89e-06 ± 5e-08 | 5.07e-06 ± 4e-08 | 4.5e-06 ± 4e-08 | 986.3 ± 0.7 | 982.6 ± 0.7 | 978.9 ± 0.7 | 975 ± 0.7 | 971.2 ± 0.7
x1 = 0.7663 | 6.39e-06 ± 5e-08 | 5.42e-06 ± 5e-08 | 4.66e-06 ± 4e-08 | 4.05e-06 ± 4e-08 | 3.65e-06 ± 3e-08 | 973.7 ± 0.7 | 970.1 ± 0.7 | 966 ± 0.7 | 962.4 ± 0.7 | 958.5 ± 0.7
x1 = 0.8047 | 4.97e-06 ± 4e-08 | 4.27e-06 ± 4e-08 | 3.71e-06 ± 3e-08 | 3.28e-06 ± 3e-08 | 2.96e-06 ± 3e-08 | 961.5 ± 0.7 | 957.5 ± 0.7 | 953.3 ± 0.7 | 949.5 ± 0.7 | 945.9 ± 0.7
x1 = 0.876 | 3.22e-06 ± 3e-08 | 2.84e-06 ± 3e-08 | 2.52e-06 ± 2e-08 | 2.26e-06 ± 2e-08 | 2.08e-06 ± 2e-08 | 938.1 ± 0.7 | 934.4 ± 0.7 | 930.4 ± 0.7 | 926.6 ± 0.7 | 922.9 ± 0.7
x1 = 0.9408 | 2.23e-06 ± 2e-08 | 1.99e-06 ± 2e-08 | 1.8e-06 ± 2e-08 | 1.63e-06 ± 2e-08 | 1.52e-06 ± 1e-08 | 916.1 ± 0.7 | 912.8 ± 0.7 | 908.5 ± 0.7 | 904.8 ± 0.7 | 901.2 ± 0.7
x1 = 1 | 1.56e-06 ± 1e-08 | 1.39e-06 ± 1e-08 | 1.27e-06 ± 1e-08 | 1.17e-06 ± 1e-08 | 1.08e-06 ± 1e-08 | 893.3 ± 0.7 | 888.8 ± 0.7 | 884.9 ± 0.7 | 880 ± 0.7 | 875.2 ± 0.7

Reference: the NIST ThermoML archive (doi:10.1016/j.tca.2014.05.034)
